Measurements as given in patent US20250206734A1, “BICYCLIC HETEROCYCLES AS MRGPRX2 ANTAGONISTS” (Incyte Corporation, priority 2023, published 2025).
pIC50: −log10 of the molar value.

Assays:
Assay type in all cases: cell-based
MRGPRX2 [1] = target: T1, MRGPRX2 (Homo sapiens, UniProt Q96LB1); test: MRGPRX2 FLIPR Calcium Mobilization Assay; parameters: host or cells: CHO-K1; settings: CHO-K1 cells stably expressing human MRGPRX2; Ca2+ release; agonist Cortistatin-14 at EC80
T1 sequence (Q96LB1 1-330): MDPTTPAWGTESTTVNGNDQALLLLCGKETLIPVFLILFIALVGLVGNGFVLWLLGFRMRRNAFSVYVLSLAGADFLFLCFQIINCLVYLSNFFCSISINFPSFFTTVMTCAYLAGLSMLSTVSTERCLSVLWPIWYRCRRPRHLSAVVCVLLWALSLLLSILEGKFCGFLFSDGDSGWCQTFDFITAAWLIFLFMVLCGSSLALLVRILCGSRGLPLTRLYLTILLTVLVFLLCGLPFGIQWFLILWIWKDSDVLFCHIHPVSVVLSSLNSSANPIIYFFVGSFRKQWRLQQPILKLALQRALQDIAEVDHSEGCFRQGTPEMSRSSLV
Protocol: Example A. MRGPRX2 FLIPR Calcium Mobilization Assay
Chinese hamster ovary (CHO-K1) cells stably expressing human MRGPRX2 were purchased from Genescript (Piscataway, NJ). The cells were maintained in culture medium (Ham's F-12K) containing 10% (v/v) FBS, 200 μg/mL Zeocin, 100 units/mL penicillin G and 100 μg/mL streptomycin (Life Technologies, Carlsbad, CA). For the assay, the cells were harvested and resuspended with culture medium without Zeocin before plating at 8000 cells per well in 20 μL in 384-well black clear bottom cell culture plates (VWR, Radnor, PA). After 24 hour culture at 37° C. and 5% CO2, the cells were loaded with 20 μL/well of calcium dye (FLIPR Calcium 6 Assay Kit, Molecular Devices, San Jose, CA) diluted in loading buffer (1× Hank's Balanced Salt Solution (HBSS), 5 mM probenecid, 20 mM 4-(2-hydroxyethyl)-1-piperazineethanesulfonic acid (HEPES), pH 7.4, VWR, Radnor, PA) followed with 45 min incubation at 37° C. and 40 min. at r.t. in the dark. Cells were then treated with the addition of 10 uL/well test compounds with a range of increasing concentrations diluted in the assay buffer (1×HBSS, 20 mM HEPES, pH 7.4, VWR, Radnor, PA) with FLIPR Penta (Molecular Devices. San Jose, CA) and incubated for 30 min. at r.t. Ca^2+ release was measured with FLIPR Penta with 10 s basal fluorescence measurement, then 12.5 μL of 5× agonist Cortistatin-14 (Tocris, Minneapolis, MN) at final concentration corresponding to the EC80 were added followed with continued fluorescence signal monitoring for an additional 110 s. The base line adjusted (median of first 10s base line) max value of the Relative Fluorescence Unit (RFU) was plotted against compound concentrations. Wells with no compound were served as the positive controls, and wells with high concentration of reference antagonist were used as negative controls. IC50 curves were globally fitted with 3- or 4-parameter Hill equation in a Genedata Screener (Genedata Basel, Switzerland).

MRGPRX2 [2] = target: T1, MRGPRX2; test: MRGPRX2 IP1 HTRF Assay; parameters: host or cells: CHO-K1; settings: CHO-K1 cells stably expressing human MRGPRX2; IP1 accumulation; agonist Cortistatin 14 1 μM
Text: Example B: MRGPRX2 IP1 HTRF Assay
This assay measures compound inhibition of myo-Inositol 1 phosphate (IP1) accumulation in CHO-K1 cells. Chinese hamster ovary (CHO-K1) cells stably expressing human MRGPRX2 were purchased from GenScript (Piscataway, NJ).
For the HTRF IP1 determination, an IP-One GqKit (Perkin Elmer Cisbio, Waltham, MA), which includes all reagents and buffers in this protocol, was used. The cells were maintained in culture medium (Ham's F-12K) containing 10% (v/v) FBS, and 200 μg/mL Zeocin. For the assay, the cells were harvested and resuspended in culture medium with 2% FBS and without Zeocin, then were passed through a 40 μm filter. Cells were added at 20000 cells in a 5 μL/well to a 384-well white small volume cell culture plate (Greiner VWR, Radnor, PA) which contained 50 nL/well of test compound serially diluted at a selected concentration range in DMSO. 5 μL/well of prepared 2× Stimulation Buffer2 was then added to plates and was incubated at 37° C. with 5% CO2 for 1 h. 5 μL/well of agonist Cortistatin 14 (Bio-TechneR&D Systems, Minneapolis, MN) in 1× Stimulation Buffer 2, for a 1 μM final concentration, was then added to plates and incubated at 37° C. with 5% CO2 for 1 h. 6 μL/well of 1:20 diluted Detection Reagent Mix (d2 and Cryptate) was added to the plates and incubated for 1 h in the dark. Plates were read on the PHERAstar microplate reader (BMG Labtech Cary, NC) to determine the HTRF ratio of the acceptor and donor emission signals. The IP1 concentrations were calculated from a standard curve following the IP-One GQ kit instructions. Wells with DMSO only and wells with high concentration of reference antagonist were used as controls for normalization. Compound IC50 curves were globally fitted with 3- or 4-parameter Hill equation in a Genedata Screener (Genedata Basel, Switzerland).

MRGPRX2 [3] = target: T1, MRGPRX2; test: MRGPRX2 β-Arrestin Assay; parameters: host or cells: PathHunter CHO-K1; settings: PathHunter CHO-K1 MRGPRX2 β-Arrestin cell line; agonist Cortistatin 14 0.25 μM
Text: Example C: MRGPRX2 β-Arrestin Assay
This assay measures compound inhibition of β-Arrestin recruitment, which is part of the G protein-independent pathway that results from the ligand-activated GPCR phosphorylation by specific GPCR kinases. The PathHunter CHO-K1 MRPGRX2 B-Arrestin Cell line stably expressing ProLink tagged MRGPRX2 and Enzyme Acceptor Tagged B-Arrestin was purchased from Eurofins DiscoverX, (Fremont, CA).
The cells were maintained in culture medium from the Europhins DiscoverX Cell Culture Kit-107 which includes FBS, hygromycin B and G418. For the assay, the cells were harvested and were resuspended with Cell Plating Reagent 2 (Eurofins DiscoverX). Cells were added 10000 cells in 25 μL/well to a 384-well black cell culture plate (Greiner VWR, Radnor, PA) which contained 125 nL/well of compound at a selected serially diluted concentration range or DMSO. The plate was incubated at 37° C. with 5% CO2 for 1 h. 2 μL/well of agonist Cortistatin 14 was diluted in Protein Dilution Buffer, (Eurofins DiscoverX) for a final concentration of 0.25 μM, was added and the plate was incubated at 37° C. with 5% CO2 for 90 min. 14 μL/well of Detection Reagent Mix (PathHunter Detection Kit, Eurofins DiscoverX) was added to the plates and further incubated for 1 h in the dark. Plates were read on the PHERAstar microplate reader (BMG Labtech Cary, NC) measuring luminescence 0.1 to 1 s per well. Data was normalized using DMSO only wells and wells with high concentration of reference antagonist as controls. Compound IC50 curves were globally fitted with 3- or 4-parameter Hill equation in a Genedata Screener (Genedata Basel, Switzerland).

| pIC50 (MRGPRX2 [1]) | pIC50 (MRGPRX2 [2]) | pIC50 (MRGPRX2 [3]) | SMILES |
| --- | --- | --- | --- |
| 7.00 to 10.00 | 7.00 to 10.00 | 7.00 to 10.00 | Fc1ccc(Oc2cnc3cc(C(N4CCCC4c4ccncc4)C(F)(F)F)ncc3c2)c(F)c1 (stereo not shown) [Example 12, 3-(2,4-Difluorophenoxy)-7-(2,2,2-trifluoro-1-(2-(pyridin-4-yl)pyrrolidin-1-yl)ethyl)-1,6-naphthyridine] |
| 7.00 to 10.00 | 7.00 to 10.00 | 7.00 to 10.00 | CC(c1cc2ncc(Oc3ccc(F)cc3F)cc2cn1)N1CCC(F)(F)C(c2ccc(=O)[nH]c2)C1 (stereo not shown) [Example 4, 5-(1-(1-(3-(2,4-Difluorophenoxy)-1,6-naphthyridin-7-yl)ethyl)-4,4-difluoropiperidin-3-yl)pyridin-2(1H)-one] |
| – | 7.00 to 10.00 | 7.00 to 10.00 | Fc1ccc(Oc2cnc3cc(C(N4CCC(F)(F)C4c4ccccc4)C(F)(F)F)ncc3c2)c(F)c1 (stereo not shown) [Example 19, 7-(1-(3,3-Difluoro-2-phenylpyrrolidin-1-yl)-2,2,2-trifluoroethyl)-3-(2,4-difluorophenoxy)-1,6-naphthyridine] |
| 7.00 to 10.00 | 7.00 to 10.00 | 7.00 to 10.00 | Fc1ccc(Oc2cnc3cc(C(N4CCCC4c4ccccc4)C(F)(F)F)ncc3c2)c(F)c1 (stereo not shown) [Example 7, 3-(2,4-Difluorophenoxy)-7-(2,2,2-trifluoro-1-(2-phenylpyrrolidin-1-yl)ethyl)-1,6-naphthyridine] |
| 7.00 to 10.00 | 7.00 to 10.00 | 7.00 to 10.00 | Fc1ccc(Oc2cnc3cc(C(N4CCC(F)(F)CC4)C(F)(F)F)ncc3c2)c(F)c1 (stereo not shown) [Example 6, 3-(2,4-Difluorophenoxy)-7-(1-(4,4-difluoropiperidin-1-yl)-2,2,2-trifluoroethyl)-1,6-naphthyridine] |
| 7.00 to 10.00 | 6.00 to 7.00 | – | CC(c1cc2ncc(Oc3ccc(F)cc3F)cc2cn1)N1CCCC(F)(F)C1 (stereo not shown) [Example 2, 3-(2,4-Difluorophenoxy)-7-(1-(3,3-difluoropiperidin-1-yl)ethyl)-1,6-naphthyridine] |
| 7.00 to 10.00 | 7.00 to 10.00 | 7.00 to 10.00 | NC(=O)[C@@H]1CCCN1C(c1cc2ncc(Oc3ccc(F)cc3F)cc2cn1)C(F)(F)F (stereo partly drawn) [Example 14, (2S)-1-(1-(3-(2,4-Difluorophenoxy)-1,6-naphthyridin-7-yl)-2,2,2-trifluoroethyl)pyrrolidine-2-carboxamide] |
| 7.00 to 10.00 | 7.00 to 10.00 | 7.00 to 10.00 | COc1ccc(C2CCCN2C(c2cc3ncc(Oc4ccc(F)cc4F)cc3cn2)C(F)(F)F)cc1 (stereo not shown) [Example 15, 3-(2,4-Difluorophenoxy)-7-(2,2,2-trifluoro-1-(2-(4-methoxyphenyl)pyrrolidin-1-yl)ethyl)-1,6-naphthyridine] |
| 7.00 to 10.00 | 7.00 to 10.00 | 7.00 to 10.00 | O=c1ccc(C2CCCN(C(c3cc4ncc(Oc5ccc(F)cc5F)cc4cn3)C(F)(F)F)C2)cn1CC(F)(F)F (stereo not shown) [Example 16, 5-(1-(1-(3-(2,4-Difluorophenoxy)-1,6-naphthyridin-7-yl)-2,2,2-trifluoroethyl)piperidin-3-yl)-1-(2,2,2-trifluoroethyl)pyridin-2(1H)-one] |
| – | 7.00 to 10.00 | 7.00 to 10.00 | O=c1ccc(C2CN(C(c3cc4ncc(Oc5ccc(F)cc5F)cc4cn3)C(F)(F)F)CCC2(F)F)c[nH]1 (stereo not shown) [Example 17, 5-(1-(1-(3-(2,4-Difluorophenoxy)-1,6-naphthyridin-7-yl)-2,2,2-trifluoroethyl)-4,4-difluoropiperidin-3-yl)pyridin-2(1H)-one] |
| – | 7.00 to 10.00 | 7.00 to 10.00 | Fc1ccc(Oc2cnc3cc(C(N4CC(F)(F)CC4c4ccccc4)C(F)(F)F)ncc3c2)c(F)c1 (stereo not shown) [Example 18, 7-(1-(4,4-Difluoro-2-phenylpyrrolidin-1-yl)-2,2,2-trifluoroethyl)-3-(2,4-difluorophenoxy)-1,6-naphthyridine] |
| – | 7.00 to 10.00 | 7.00 to 10.00 | O=c1ccc(C2CCCN2C(c2cc3ncc(Oc4ccc(F)cc4F)cc3cn2)C(F)(F)F)c[nH]1 (stereo not shown) [Example 20, 5-(1-(1-(3-(2,4-Difluorophenoxy)-1,6-naphthyridin-7-yl)-2,2,2-trifluoroethyl)pyrrolidin-2-yl)pyridin-2(1H)-one] |
